Laboratory results published in patent US9248098B2, “Treating or preventing pain using spicamycin derivatives” (DARA BIOSCIENCES, INC., priority 2008, dated 2016).

How the values were obtained:
[1] = test system: patients with end-stage cancer experiencing neuropathic pain; assay: Phase 2 placebo-controlled study of KRN5500, efficacy on neuropathic pain; assay type: in vivo, human; conditions: for median decrease from baseline in pain intensity, clinic numeric rating scale (NRS) scores: placebo median change zero
Procedure: (§1) A Phase 2, multicenter, placebo-controlled, randomized, parallel group study was carried out to evaluate the safety, efficacy, and dose-response of KRN5500 in patients with end-stage cancer experiencing neuropathic pain. Nineteen (19) patients were enrolled in the study. Thirteen were randomized to receive KRN5500 and 6 were randomized to receive placebo. Due to a randomization error at an investigative site, one patient randomized to receive KRN5500 actually received placebo. Of the 12 patients who received KRN5500, 3 (25%) completed all dosing visits. Two (28.6%) of the patients who received placebo completed all dosing visits. No patients were lost to follow up and no patients died.
The treatment groups were similar in demographics, with the majority of patients being Caucasian (73.7%) and approximately 50/50 in distribution by gender. The median age of patients enrolled was 62 years, ranging from 41 to 84 years. The average body surface area (BSA) was 1.8 m^2 ranging from 0.95 to 2.27 m^2. The majority of the patient population had allodynia (84.2%). This and other baseline characteristics of neuropathic pain were consistent between the treatment groups.
(§2) The median duration of exposure to KRN5500 was 40 days compared to 29 days for placebo. On average, KRN5500 patients took 5.3 doses while placebo patients took 4.4 doses. The highest dose received was 2.2 mg/m^2. Seven (58.3%) of KRN5500 patients were exposed to at least one dose at this level, while 4 (57.1%) of Placebo patients were exposed to at least one dose at this level.
Pain intensity, based on clinic numeric rating scale (NRS) scores, was analyzed for both the Intent-to-treat (ITT) and modified efficacy (ME) populations. […] Since more than 80% of patients had allodynia as a baseline characteristic, results from the analysis of the subset of patients with allodynia present at baseline was consistent with the overall analysis. Too few patients presented without allodynia at baseline to adequately draw conclusions in this subset. […] Three (25%) of the KRN5500 treated patients achieved 33% or greater pain decrease and none of the placebo patients achieved this level.

[2] = test system: patients with end-stage cancer experiencing neuropathic pain; assay: Phase 2 placebo-controlled study of KRN5500, safety; assay type: in vivo, human
Procedure: as §1, §2
All patients treated with KRN5500 (100%) had at least one treatment emergent adverse event, compared to 86% (6 of 7 patients) in the Placebo treated group. Events recorded by the KRN5500 patients tended to be more severe (84% moderate or severe in KRN5500 vs. 71% in Placebo). Events were typically gastrointestinal disorders such as nausea or vomiting and were more frequently considered to be related to treatment in the KRN5500 group than in the Placebo group (92% vs. 14%). Three patients (25%) in the KRN5500 group and 1 (14%) patient in the Placebo group experienced serious adverse events (AEs). […] Two patients treated with KRN5500 withdrew from the study due to nausea and vomiting which were thought to be related to study drug. One patient treated with KRN5500 withdrew due to convulsions not thought to be related to study drug. One patient treated with Placebo withdrew from the study due to a stroke not related to study drug.

[3] = test system: rat models of neuropathic pain; conditions: Abdi et al. 2000; Kobierski et al. 2003; cited from earlier work
[4] = brief pain inventory, no change in placebo
[5] = neuropathic pain questionnaire, versus placebo
[6] = of 12 patients who received KRN5500

CCCCCCCCC/C=C/C=C/C(=O)NCC(=O)N[C@@H]1[C@@H](O)[C@@H](O)[C@@H](Nc2ncnc3[nH]cnc23)O[C@H]1[C@@H](O)CO [KRN5500, 6-[4-deoxy-4-[(2E,4E)-tetradecadienoylglycyl}amino-L-glycero-β-L-mannoheptopyranosyl]amino-9H-purine]
aggregated physical and mental SF-12 scores ([1]; 1 week post-dose follow up): basically unchanged from baseline | dose response at last dose received (Endpoint) ([1]; ITT or ME population analysis): no trend for dose response | median decrease from baseline in pain intensity, clinic numeric rating scale (NRS) scores ([1]; Intent-to-treat (ITT) population): 22% | significance of decrease in pain intensity (clinic NRS) ([1]; Wilcoxon Rank Sum test of the medians, ME analysis, p=0.03): statistically significant decrease | dynamic and cold allodynia assessment ([1]; affected and unaffected areas, versus placebo): larger decrease in pain associated with both touch and cold | BPI: aggregate measure of pain's interference in the last 24 hours [1, 4]: decreases from baseline | BPI: patient perception of pain at its least in the past 24 hours [1, 4]: decreases from baseline | patients with a 20% or greater reduction in pain intensity ([1]; diary endpoint, 5 of KRN5500 treated patients, placebo 1 (14%)): 42% | median decrease from baseline in pain intensity, clinic numeric rating scale (NRS) scores ([1]; modified efficacy (ME) population): 23.6% | NPQ individual questions: burning pain, electric pain and freezing pain [1, 5]: decreases from baseline in favor of KRN5500 | NPQ questions: sensitivity to touch, shooting pain, numbness, tingling, or squeezing pain [1, 5]: no different between treatment groups | NPQ: increased pain due to touch or to weather changes [1, 5]: no treatment differences | best pain intensity response (largest decrease in pain) recorded in clinic over all doses, median decrease ([1]; placebo showed no decrease): 29.3% | median decrease in pain intensity based on diary data ([1]; placebo showed no decrease): 16.4% | SPQ: brush/touch induced pain scores ([1]; supplemental pain questionnaire): greater decrease in pain scores than the Placebo treated patients | SPQ: cold induced pain ([1]; supplemental pain questionnaire, at endpoint, both groups decreased): no treatment differences | patients achieving 33% or greater pain decrease ([1]; three KRN5500 treated patients, none of the placebo patients): 25% | Karnofsky Performance Status (KPS) ([1]; throughout the study, baseline median 75): did not change throughout the study | incidence of nausea and vomiting ([2]; generally considered related to study drug): High incidences of nausea and vomiting | deaths ([2]; in vivo): No deaths were observed | relation of serious AEs to study drug ([2]; in vivo): None were considered to be related to study drug | patients withdrawn due to convulsions not thought to be related to study drug [2, 6]: One | patients withdrawn due to nausea and vomiting thought to be related to study drug [2, 6]: Two | adverse events moderate or severe ([2]; placebo 71%): 84% | patients with at least one treatment emergent adverse event ([2]; placebo 86% (6 of 7 patients)): 100% | patients experiencing serious adverse events (AEs) ([2]; three patients, placebo 1 (14%)): 25% | clinically significant laboratory abnormalities, changes in vital signs, physical examinations, or ECGs ([2]; throughout the study): not observed | adverse events considered to be related to treatment ([2]; typically gastrointestinal disorders such as nausea or vomiting, placebo 14%): 92% | efficacy in rat models of neuropathic pain [3]: effective
